Legend:
Septoria nodorum = assay: leaf disk assay, Septoria nodorum (wheat glume blotch), preventive; assay type: in vivo; conditions: for Efficacy (%): wheat leaf segments, four days after inoculation

SMILES	Efficacy (%) (Septoria nodorum; Concentration 60 ppm)	Efficacy (%) (Septoria nodorum; Concentration 200 ppm)	melting point [°C]	fungicidal activity against Septoria nodorum compared with the compound from the state of the art (Septoria nodorum; both application rates (200 and 60 ppm))
CC#CC(C)(C)NC(=O)C(Oc1cc(Br)c2ncc(Br)cc2c1)SC (stereo not drawn) [2 (Table 23), reference compound]	0	0		
CC#CC(C)(C)NC(=O)C(Oc1cc(Br)c2ncc(I)cc2c1)SC (stereo not drawn) [2(5), 2-(8-bromo-3-iodo-quinolinyl-6-oxy)-2-methylthio-N-(2-methylpent-3-yn-2-yl) acetamide]	80	100	161 to 162	substantially better fungicidal activity

Source: patent US8440595B2, “Fungicides” (priority 2007, dated 2013)
